Source: ChEMBL document CHEMBL5385848, “Discovery of novel hydroxyamidine based indoleamine 2,3-dioxygenase 1 (IDO1) and thioredoxin reductase 1 (TrxR1) dual inhibitors” (Eur J Med Chem, 2023)
Active and inactive are the calls of the source. No cut-off for these calls is given here.

What was measured:
HCT-116 [1] = experiment: Induction of apoptosis in human HCT-116 cells assessed as apoptotic rate at 10 uM incubated for 24 hrs by Annexin-V/PI staining based flow cytometry analysis; type: functional
HeLa [2] = experiment: Induction of ROS generation in human HeLa cells incubated for 4 hrs by DCFH-DA staining based flow cytometry analysis; type: functional, cell-based; conditions: dose 2.5-10 µM
HCT-116 [3] = experiment: Induction of ROS generation in human HCT-116 cells incubated for 4 hrs by DCFH-DA staining based flow cytometry analysis; type: functional, cell-based; conditions: dose 2.5-10 µM
HCT-116 [4] = experiment: Induction of ROS generation in human HCT-116 cells at 10 uM incubated for 4 hrs by DCFH-DA staining based flow cytometry analysis; type: functional, cell-based
[5] = biological target: Tryptophan 2,3-dioxygenase (Homo sapiens, UniProt P48775); experiment: Inhibition of TDO (unknown origin) using L-Trp as substrate incubated for 75 mins
Tryptophan 2,3-dioxygenase, sequence (P48775 whole entry): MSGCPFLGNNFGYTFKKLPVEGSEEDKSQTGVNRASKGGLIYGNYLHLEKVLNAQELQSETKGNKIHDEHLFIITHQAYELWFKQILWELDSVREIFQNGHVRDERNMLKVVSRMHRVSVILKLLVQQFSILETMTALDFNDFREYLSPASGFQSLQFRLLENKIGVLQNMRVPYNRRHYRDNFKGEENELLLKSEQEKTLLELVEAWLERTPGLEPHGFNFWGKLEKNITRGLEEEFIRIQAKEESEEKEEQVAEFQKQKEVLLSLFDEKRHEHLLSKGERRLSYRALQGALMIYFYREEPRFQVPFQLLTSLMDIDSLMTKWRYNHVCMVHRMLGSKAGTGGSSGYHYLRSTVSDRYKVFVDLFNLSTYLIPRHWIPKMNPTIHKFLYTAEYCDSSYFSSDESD

Thioredoxin reductase 3 = biological target: T1, Thioredoxin reductase 3 (Homo sapiens, UniProt Q86VQ6); experiment: Inhibition of TrxR3 (unknown origin) incubated for 1 hr in presence of NADPH by microplate reader analysis
T1 sequence (Q86VQ6 whole entry): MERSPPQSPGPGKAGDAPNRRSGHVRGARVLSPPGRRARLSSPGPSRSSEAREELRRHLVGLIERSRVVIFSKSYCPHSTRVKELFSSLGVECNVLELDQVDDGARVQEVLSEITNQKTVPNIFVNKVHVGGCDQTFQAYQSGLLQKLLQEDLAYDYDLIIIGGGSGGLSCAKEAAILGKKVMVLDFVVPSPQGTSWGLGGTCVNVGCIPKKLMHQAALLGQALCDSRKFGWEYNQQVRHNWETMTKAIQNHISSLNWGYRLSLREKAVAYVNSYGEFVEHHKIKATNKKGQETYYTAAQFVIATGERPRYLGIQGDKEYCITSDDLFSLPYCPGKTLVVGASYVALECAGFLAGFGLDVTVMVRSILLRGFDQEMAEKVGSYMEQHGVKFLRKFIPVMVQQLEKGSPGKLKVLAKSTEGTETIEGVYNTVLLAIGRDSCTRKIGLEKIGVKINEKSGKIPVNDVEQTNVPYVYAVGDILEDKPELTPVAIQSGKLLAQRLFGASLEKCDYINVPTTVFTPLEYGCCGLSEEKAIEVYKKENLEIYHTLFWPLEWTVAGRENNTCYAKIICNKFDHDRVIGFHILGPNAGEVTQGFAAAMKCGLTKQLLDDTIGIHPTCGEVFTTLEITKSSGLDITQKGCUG

[6] = biological target: Thioredoxin reductase 2, mitochondrial (Homo sapiens, UniProt Q9NNW7); experiment: Inhibition of TrxR2 (unknown origin) incubated for 1 hr in presence of NADPH by microplate reader analysis
Thioredoxin reductase 2, mitochondrial, sequence (Q9NNW7 whole entry): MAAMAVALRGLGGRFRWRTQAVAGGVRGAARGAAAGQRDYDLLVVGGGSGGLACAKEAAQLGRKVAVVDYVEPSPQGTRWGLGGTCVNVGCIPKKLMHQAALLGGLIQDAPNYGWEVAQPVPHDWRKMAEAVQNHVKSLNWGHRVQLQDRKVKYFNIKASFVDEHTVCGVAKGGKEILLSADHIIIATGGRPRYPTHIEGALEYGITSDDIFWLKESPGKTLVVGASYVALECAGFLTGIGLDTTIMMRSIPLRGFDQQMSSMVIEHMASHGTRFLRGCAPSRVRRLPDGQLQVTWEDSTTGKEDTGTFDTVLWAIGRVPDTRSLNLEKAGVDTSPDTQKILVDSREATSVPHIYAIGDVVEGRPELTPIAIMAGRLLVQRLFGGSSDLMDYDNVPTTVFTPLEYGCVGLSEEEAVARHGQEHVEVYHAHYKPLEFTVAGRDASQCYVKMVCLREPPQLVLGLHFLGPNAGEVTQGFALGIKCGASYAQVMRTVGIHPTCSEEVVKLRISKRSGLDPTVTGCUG

[7] = biological target: T2, Thioredoxin reductase 1, cytoplasmic (Rattus norvegicus, UniProt O89049); experiment: Inhibition of recombinant rat TrxR1 incubated for 1 hr in presence of NADPH by microplate reader analysis
T2 sequence (O89049 whole entry): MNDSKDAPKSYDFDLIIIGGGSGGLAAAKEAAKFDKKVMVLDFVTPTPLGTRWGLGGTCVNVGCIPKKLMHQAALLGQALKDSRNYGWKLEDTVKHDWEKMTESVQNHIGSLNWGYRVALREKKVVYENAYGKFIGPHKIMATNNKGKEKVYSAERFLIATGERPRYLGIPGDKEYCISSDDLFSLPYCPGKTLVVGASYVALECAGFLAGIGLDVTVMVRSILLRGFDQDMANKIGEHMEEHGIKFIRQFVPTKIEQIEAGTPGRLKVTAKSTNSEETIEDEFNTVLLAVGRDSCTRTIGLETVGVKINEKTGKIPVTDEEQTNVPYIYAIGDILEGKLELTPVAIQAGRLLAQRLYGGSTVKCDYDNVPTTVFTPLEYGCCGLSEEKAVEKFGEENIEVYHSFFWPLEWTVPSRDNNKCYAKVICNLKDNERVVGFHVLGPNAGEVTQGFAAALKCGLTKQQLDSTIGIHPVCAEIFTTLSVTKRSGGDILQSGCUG

HeLa [8] = experiment: Cytotoxicity against human HeLa cells incubated for 24 hrs CCK-8 assay; type: functional, cell-based
[9] = biological target: Indoleamine 2,3-dioxygenase 1 (Mus musculus) (UniProt P28776); experiment: In vivo inhibition of IDO1 in C57BL/6 mouse assessed as increase in plasma Trp level at 60 mg/kg, po administered once daily by LC-MS/MS analysis; type: functional, organism-based
Indoleamine 2,3-dioxygenase 1 (Mus musculus), sequence (P28776 whole entry, looked up): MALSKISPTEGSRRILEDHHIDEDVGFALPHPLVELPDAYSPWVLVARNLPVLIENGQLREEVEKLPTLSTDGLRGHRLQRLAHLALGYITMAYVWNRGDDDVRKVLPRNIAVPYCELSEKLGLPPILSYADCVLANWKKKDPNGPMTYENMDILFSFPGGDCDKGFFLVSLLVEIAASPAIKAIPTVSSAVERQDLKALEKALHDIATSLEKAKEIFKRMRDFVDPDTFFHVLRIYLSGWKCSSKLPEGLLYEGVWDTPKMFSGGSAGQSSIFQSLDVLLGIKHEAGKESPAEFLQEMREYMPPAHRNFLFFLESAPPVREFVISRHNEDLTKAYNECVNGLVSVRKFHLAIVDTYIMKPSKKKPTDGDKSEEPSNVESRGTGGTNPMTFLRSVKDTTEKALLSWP

[10] = biological target: Indoleamine 2,3-dioxygenase 1 (Mus musculus) (UniProt P28776); experiment: In vivo inhibition of IDO1 in BALB/c mouse implanted with mouse CT-26 cells assessed as increase in plasma Trp level at 60 mg/kg, po administered once daily by LC-MS/MS analysis; type: functional, organism-based
[11] = biological target: Indoleamine 2,3-dioxygenase 1 (Mus musculus) (UniProt P28776); experiment: In vivo inhibition of IDO1 in BALB/c mouse implanted with mouse CT-26 cells assessed as reduction in tumor Kyn/Trp ratio at 60 mg/kg, po administered once daily by LC-MS/MS analysis; type: functional, organism-based
CT26 [12] = experiment: Antitumor activity against ig dosed mouse CT26 cells implanted in […] BALB/c mouse assessed as reduction in tumor volume administered daily for 28 days and measured every 4 days; type: functional, organism-based; conditions: dose 15-60 mg/kg, time 28.0 day
CT26 [13] = experiment: Antitumor activity against mouse CT26 cells implanted in athymic nude BALB/c mouse assessed as reduction in CD4+CD25+Foxp3+ lymphocytes at 15 to 60 mg/kg, ig administered daily for 28 days and measured every 4 days by immunofluorescence analysis; type: functional, organism-based; conditions: dose 15-60 mg/kg, time 28.0 day
CT26 [14] = experiment: Antitumor activity against mouse CT26 cells implanted in athymic nude BALB/c mouse assessed as reduction in nTreg lymphocytes at 15 to 60 mg/kg, ig administered daily for 28 days and measured every 4 days by immunofluorescence analysis; type: functional, organism-based; conditions: dose 15-60 mg/kg, time 28.0 day
[15] = Toxicity in athymic BALB/c mouse xenografted with human HCT-116 cells assessed as change in heart morphology at 15 to 60 mg/kg, ig administered daily for 28 days and measured every 4 days; type: organism-based; conditions: in vivo, po, 672 h, dose 15-60 mg/kg, time 28 day
[16] = Toxicity in athymic BALB/c mouse xenografted with human HCT-116 cells assessed as change in liver morphology at 15 to 60 mg/kg, ig administered daily for 28 days and measured every 4 days; type: organism-based; conditions: in vivo, po, 672 h, dose 15-60 mg/kg, time 28 day
Mus musculus = experiment: In vivo inhibition of TrxR1 in human HCT-116 cells xenografted in athymic nude BALB/c mouse assessed as reduction in TrxR1 activity at 15 to 60 mg/kg, ig administered daily for 28 days and measured every 4 days; type: functional, organism-based; conditions: dose 15-60 mg/kg, time 28.0 day

## O=C(Cc1ccc(O)cc1)Nc1nnc(CCCNc2nonc2/C(=N\O)Nc2ccc(F)c(Br)c2)s1
HCT-116 [1]
  Activity: 60.55%
HeLa [2]
  Activity: Dose-Dependent Effect
HCT-116 [3]
  Activity: Dose-Dependent Effect
HCT-116 [4]
  Activity: Active
[5]
  IC50: 54.2 µM
Thioredoxin reductase 3
  IC50: > 500 µM
[6]
  IC50: > 500 µM
[7]
  IC50: 3 µM
HeLa [8]
  IC50: 16.1 µM
[9]
  Activity: Active
[10]
  Activity: Active
[11]
  Activity: Active
CT26 [12]
  Activity: Dose-Dependent Effect
CT26 [13]
  Activity: Active
CT26 [14]
  Activity: Active
[15]
  Activity: Non-Toxic
[16]
  Activity: Non-Toxic
Mus musculus
  Activity: Active
